Earlier results as cited in article PMC6344135, “Analgesic effects of the cathepsin K inhibitor L-006235 in the monosodium iodoacetate model of osteoarthritis pain” (Pain Reports, 2018).

Tests used:
[1] = test system: rabbit ACLT and dog partial medial meniscectomy models; parameters: method as in PMID 29523155; conditions: once daily for 7 weeks (rabbit), 28 days (dog)
MIA model of OA pain = conditions: preventative and reversal
surgical model of OA = conditions: pain not analysed

C#C[C@@H]1CN(C(=O)[C@H](CC(C)C)NC(=O)c2ccc(-c3nc(N4CCN(C)CC4)sc3F)cc2)[C@@H]2C(=O)CO[C@H]12 [MIV-711]
joint pathology [1]: prophylactic and therapeutic effects

O=P(O)(O)C(O)(Cn1ccnc1)P(=O)(O)O [zoledronate]
pain behaviour in MIA rats (MIA model of OA pain): Significant preventative, and reversal, effects

NCCCC(O)(P(=O)(O)O)P(=O)(O)O [alendronate]
bone resorption and cartilage (surgical model of OA): inhibited bone resorption and had chondroprotective effects
